Measurements taken from patent publication US8691865B2 (AbbVie Inc., priority 2008, dated 2014).

Target: human Cav2.2 (Homo sapiens, UniProt Q00975)
Assay: Assessment of calcium channel activity using FLIPR (Ca2+ influx in IMR32 cells)
Type: cell-based
Conditions: not given
Outline: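 IC50 values derive from nonlinear sigmoidal fitting of percent inhibition, relative to inhibitor-free activity, of Ca2+ influx read by FLIPR. Cells were IMR32 human neuroblastoma, plated at 1−1.2×10^5 per well and grown 48 h at 37 °C.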

Sequence of human Cav2.2 (Q00975 whole entry): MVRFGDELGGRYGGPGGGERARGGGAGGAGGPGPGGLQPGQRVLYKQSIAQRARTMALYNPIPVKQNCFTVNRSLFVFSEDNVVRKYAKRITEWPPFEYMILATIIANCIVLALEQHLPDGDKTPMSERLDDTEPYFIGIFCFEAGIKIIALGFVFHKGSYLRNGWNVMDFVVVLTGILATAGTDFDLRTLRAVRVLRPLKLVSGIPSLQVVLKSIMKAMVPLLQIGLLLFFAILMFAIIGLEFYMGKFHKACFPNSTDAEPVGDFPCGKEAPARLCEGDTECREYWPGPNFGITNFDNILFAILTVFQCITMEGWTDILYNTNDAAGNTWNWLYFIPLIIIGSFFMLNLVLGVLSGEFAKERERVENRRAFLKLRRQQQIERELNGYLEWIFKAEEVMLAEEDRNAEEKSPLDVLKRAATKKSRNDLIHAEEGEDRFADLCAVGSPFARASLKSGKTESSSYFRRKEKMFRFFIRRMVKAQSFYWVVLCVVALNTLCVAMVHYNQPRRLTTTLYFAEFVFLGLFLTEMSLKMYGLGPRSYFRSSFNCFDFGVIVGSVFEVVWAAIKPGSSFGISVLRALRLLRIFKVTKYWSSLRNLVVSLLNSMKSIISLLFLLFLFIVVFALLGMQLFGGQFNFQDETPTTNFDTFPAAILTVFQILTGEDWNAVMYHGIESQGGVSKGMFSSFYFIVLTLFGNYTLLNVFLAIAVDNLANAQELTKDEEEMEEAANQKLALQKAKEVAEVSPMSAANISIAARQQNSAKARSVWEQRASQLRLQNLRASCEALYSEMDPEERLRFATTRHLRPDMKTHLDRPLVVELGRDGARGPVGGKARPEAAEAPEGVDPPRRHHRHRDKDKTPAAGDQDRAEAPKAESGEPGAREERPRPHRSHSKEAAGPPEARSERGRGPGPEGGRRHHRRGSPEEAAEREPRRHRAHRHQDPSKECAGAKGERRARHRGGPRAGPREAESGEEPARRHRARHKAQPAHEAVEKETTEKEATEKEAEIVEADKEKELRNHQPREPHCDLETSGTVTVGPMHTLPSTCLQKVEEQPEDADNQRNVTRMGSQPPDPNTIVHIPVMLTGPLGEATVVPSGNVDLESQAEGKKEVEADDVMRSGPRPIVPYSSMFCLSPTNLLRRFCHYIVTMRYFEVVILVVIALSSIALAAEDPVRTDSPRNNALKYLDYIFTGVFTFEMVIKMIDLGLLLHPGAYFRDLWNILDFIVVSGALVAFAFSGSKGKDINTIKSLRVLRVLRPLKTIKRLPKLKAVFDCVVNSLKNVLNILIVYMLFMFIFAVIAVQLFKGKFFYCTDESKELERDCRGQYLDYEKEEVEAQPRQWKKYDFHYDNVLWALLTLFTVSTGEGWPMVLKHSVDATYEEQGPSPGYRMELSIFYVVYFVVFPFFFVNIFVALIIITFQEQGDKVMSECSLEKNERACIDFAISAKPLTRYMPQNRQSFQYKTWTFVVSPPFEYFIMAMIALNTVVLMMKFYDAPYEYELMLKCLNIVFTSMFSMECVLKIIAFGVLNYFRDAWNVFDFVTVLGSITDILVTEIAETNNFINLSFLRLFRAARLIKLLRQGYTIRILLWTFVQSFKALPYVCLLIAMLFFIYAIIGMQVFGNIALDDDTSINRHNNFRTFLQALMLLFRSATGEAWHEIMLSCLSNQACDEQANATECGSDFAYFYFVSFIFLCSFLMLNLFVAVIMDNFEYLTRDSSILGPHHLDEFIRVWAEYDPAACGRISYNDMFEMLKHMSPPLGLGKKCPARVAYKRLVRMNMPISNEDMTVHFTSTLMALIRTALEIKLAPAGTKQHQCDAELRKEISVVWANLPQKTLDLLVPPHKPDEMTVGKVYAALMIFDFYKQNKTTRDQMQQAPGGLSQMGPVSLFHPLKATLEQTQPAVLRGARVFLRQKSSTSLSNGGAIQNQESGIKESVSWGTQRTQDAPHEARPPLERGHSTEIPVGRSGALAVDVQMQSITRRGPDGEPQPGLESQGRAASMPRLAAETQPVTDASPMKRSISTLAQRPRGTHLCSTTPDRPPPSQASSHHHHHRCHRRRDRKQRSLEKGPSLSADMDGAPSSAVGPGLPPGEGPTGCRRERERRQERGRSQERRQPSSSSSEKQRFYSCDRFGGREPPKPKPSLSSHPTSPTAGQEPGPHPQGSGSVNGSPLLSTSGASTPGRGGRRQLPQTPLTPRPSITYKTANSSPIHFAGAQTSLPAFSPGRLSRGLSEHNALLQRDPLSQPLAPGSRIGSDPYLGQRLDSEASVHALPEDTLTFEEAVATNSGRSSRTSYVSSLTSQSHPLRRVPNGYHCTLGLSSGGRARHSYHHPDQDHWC
Sequence of human Cav2.2 (P54289 25-956 partner limits assumed): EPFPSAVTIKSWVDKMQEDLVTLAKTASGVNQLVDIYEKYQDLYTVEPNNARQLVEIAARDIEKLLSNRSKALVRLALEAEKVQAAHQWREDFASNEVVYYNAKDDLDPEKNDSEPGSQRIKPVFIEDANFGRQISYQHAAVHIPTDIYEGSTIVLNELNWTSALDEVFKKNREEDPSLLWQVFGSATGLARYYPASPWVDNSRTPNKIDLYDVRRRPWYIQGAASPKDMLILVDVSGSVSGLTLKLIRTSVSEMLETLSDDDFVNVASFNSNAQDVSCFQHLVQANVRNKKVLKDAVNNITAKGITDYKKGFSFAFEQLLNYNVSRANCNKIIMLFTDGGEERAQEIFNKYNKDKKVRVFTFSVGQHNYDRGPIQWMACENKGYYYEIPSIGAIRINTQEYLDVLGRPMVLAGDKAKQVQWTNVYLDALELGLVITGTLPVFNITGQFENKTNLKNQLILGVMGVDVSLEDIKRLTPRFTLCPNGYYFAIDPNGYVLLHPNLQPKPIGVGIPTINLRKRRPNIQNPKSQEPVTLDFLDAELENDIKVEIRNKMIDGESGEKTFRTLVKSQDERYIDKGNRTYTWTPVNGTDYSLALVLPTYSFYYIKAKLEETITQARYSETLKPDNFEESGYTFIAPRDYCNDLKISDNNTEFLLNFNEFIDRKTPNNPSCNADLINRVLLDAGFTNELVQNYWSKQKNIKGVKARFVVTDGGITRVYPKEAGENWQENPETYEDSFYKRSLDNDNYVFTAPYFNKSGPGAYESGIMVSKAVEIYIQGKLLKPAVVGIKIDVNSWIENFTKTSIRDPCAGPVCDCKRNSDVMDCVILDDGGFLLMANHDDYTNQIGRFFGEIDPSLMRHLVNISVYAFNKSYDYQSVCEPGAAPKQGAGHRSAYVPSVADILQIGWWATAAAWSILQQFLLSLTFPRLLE
Sequence of human Cav2.2 (P54289 957-1103 partner limits assumed): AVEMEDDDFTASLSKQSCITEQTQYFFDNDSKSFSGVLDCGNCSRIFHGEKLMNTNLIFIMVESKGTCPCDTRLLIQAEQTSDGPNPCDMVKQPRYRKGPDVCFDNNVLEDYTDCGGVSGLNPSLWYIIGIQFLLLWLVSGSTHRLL
Sequence of human Cav2.2 (P54284 whole entry partner): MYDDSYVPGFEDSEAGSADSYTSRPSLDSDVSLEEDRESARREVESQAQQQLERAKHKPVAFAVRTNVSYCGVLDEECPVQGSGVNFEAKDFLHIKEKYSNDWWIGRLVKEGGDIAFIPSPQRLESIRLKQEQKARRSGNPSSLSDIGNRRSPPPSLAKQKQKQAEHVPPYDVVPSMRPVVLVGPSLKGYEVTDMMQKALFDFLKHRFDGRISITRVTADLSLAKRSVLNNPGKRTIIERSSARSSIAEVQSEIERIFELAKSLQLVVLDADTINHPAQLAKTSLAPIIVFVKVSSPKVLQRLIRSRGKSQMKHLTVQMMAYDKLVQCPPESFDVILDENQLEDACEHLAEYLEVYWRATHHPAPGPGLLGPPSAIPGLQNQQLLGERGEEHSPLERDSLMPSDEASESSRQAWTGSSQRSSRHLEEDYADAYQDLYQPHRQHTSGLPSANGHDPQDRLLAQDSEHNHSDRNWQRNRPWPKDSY

Row | IC50 [µM] | Compound
1 | 0.51 | O=C(N[C@H]1CC[C@H]2CN(Cc3cccc(C(F)(F)F)c3)C[C@H]21)C(O)(C1CCCCC1)C1CCCCC1 [Example 152, 2,2-dicyclohexyl-2-hydroxy-N-{(3aS,4S,6aR)-2-[3-(trifluoromethyl)benzyl]octahydrocyclopenta[c]pyrrol-4-yl}acetamide]
2 | 1.12 | O=C(N[C@H]1CC[C@@H]2CN(c3cccc(C(F)(F)F)n3)C[C@@H]21)c1cc(C2CC2)n[nH]1 [Example 583, 3-cyclopropyl-N-{(3aR,4S,6aS)-2-[6-(trifluoromethyl)pyridin-2-yl]octahydrocyclopenta[c]pyrrol-4-yl}-1H-pyrazole-5-carboxamide]
3 | 0.63 | CN[C@@H](CC(C)C)C(=O)N[C@H]1CC[C@@H]2CN(c3ccccc3C(F)(F)F)C[C@@H]21 [Example 618, N^2-methyl-N-{(3aR,4S,6aS)-2-[2-(trifluoromethyl)phenyl]octahydrocyclopenta[c]pyrrol-4-yl}-L-leucinamide]
4 | 1.07 | CCCC(C(=O)NC1CCC2CN(Cc3ccc(F)cc3)CC21)N(C)C(=O)OC(C)(C)C (single isomer, unassigned) [Example 318]
5 | > 3 | NCC(=O)N[C@H]1CC[C@@H]2CN(c3ccc(C(F)(F)F)cc3)C[C@@H]21 [Example 751, N-{(3aR,4S,6aS)-2-[4-(trifluoromethyl)phenyl]octahydrocyclopenta[c]pyrrol-4-yl}glycinamide]
6 | 1.93 | CC(C)C[C@@H](C(=O)N[C@H]1CC[C@@H]2CN(Cc3ccc(C(F)(F)F)cc3)C[C@@H]21)N(C)C(=O)OC(C)(C)C [Example 308, tert-butyl methyl((S)-4-methyl-1-oxo-1-((3aR,4S,6aS)-2-(4-(trifluoromethyl)benzyl)octahydrocyclopenta[c]pyrrol-4-ylamino)pentan-2-yl)carbamate]
7 | 0.51 | O=C(N[C@H]1CC[C@H]2CN(Cc3cccc(OC(F)(F)F)c3)C[C@H]21)C(C1CCCCC1)C1CCCCC1 [Example 63, 2,2-dicyclohexyl-N-{(3aS,4S,6aR)-2-[3-(trifluoromethoxy)benzyl]octahydrocyclopenta[c]pyrrol-4-yl}acetamide]
8 | 7.03 | O=C(N[C@H]1CC[C@@H]2CN(c3ncccc3C(F)(F)F)C[C@@H]21)[C@@H]1C[C@@H](F)CN1 [Example 660, (4R)-4-fluoro-N-{(3aR,4S,6aS)-2-[3-(trifluoromethyl)pyridin-2-yl]octahydrocyclopenta[c]pyrrol-4-yl}-L-prolinamide]
9 | 4.52 | O=C(N[C@H]1CC[C@@H]2CN(c3ccc(F)c(C(F)(F)F)c3)C[C@@H]21)[C@@H]1C[C@@H](F)CN1 [Example 626, (4R)-4-fluoro-N-{(3aR,4S,6aS)-2-[4-fluoro-3-(trifluoromethyl)phenyl]octahydrocyclopenta[c]pyrrol-4-yl}-L-prolinamide]
10 | > 30 | CN[C@@H](CC(C)C)C(=O)N[C@H]1CC[C@@H]2CN(Cc3ccc(F)cc3)C[C@@H]21 [Example 381, N^1-[(3aR,4S,6aS)-2-(4-fluorobenzyl)octahydrocyclopenta[c]pyrrol-4-yl]-N^2-methyl-L-leucinamide]

Second part, the compound before the results:

Row | Compound | IC50 [µM]
11 | O=S(=O)(Cc1ccc(Cl)cc1)N[C@H]1CC[C@@H]2CN(c3cccc(C(F)(F)F)n3)C[C@@H]21 [Example 717, 1-(4-chlorophenyl)-N-{(3aR,4S,6aS)-2-[6-(trifluoromethyl)pyridin-2-yl]octahydrocyclopenta[c]pyrrol-4-yl}methanesulfonamide] | 3.54
12 | CN[C@@H](CC(C)C)C(=O)N[C@H]1CC[C@@H]2CN(c3ccccc3F)C[C@@H]21 [Example 619, N-[(3aR,4S,6aS)-2-(2-fluorophenyl)octahydrocyclopenta[c]pyrrol-4-yl]-N^2-methyl-L-leucinamide] | 2.84
13 | FC(F)(F)c1cccc(N2C[C@H]3CC[C@H](NCc4c[nH]c5ccccc45)[C@H]3C2)n1 [Example 684, (3aR,4S,6aS)-N-(1H-indol-3-ylmethyl)-2-[6-(trifluoromethyl)pyridin-2-yl]octahydrocyclopenta[c]pyrrol-4-amine] | 1.05
14 | Fc1cc(F)cc(-c2n[nH]cc2CN[C@H]2CC[C@@H]3CN(c4cccc(C(F)(F)F)n4)C[C@@H]32)c1 [Example 687, (3aR,4S,6aS)-N-{[3-(3,5-difluorophenyl)-1H-pyrazol-4-yl]methyl}-2-[6-(trifluoromethyl)pyridin-2-yl]octahydrocyclopenta[c]pyrrol-4-amine] | 1.27
15 | Fc1ccc2[nH]c(CN[C@H]3CC[C@@H]4CN(c5cccc(C(F)(F)F)c5)C[C@@H]43)cc2c1 [Example 616, (3aR,4S,6aS)-N-[(5-fluoro-1H-indol-2-yl)methyl]-2-[3-(trifluoromethyl)phenyl]octahydrocyclopenta[c]pyrrol-4-amine] | 4.22
16 | CC(C)C[C@@H](C(=O)N[C@@H]1CC[C@H]2CN(S(=O)(=O)C3CC3)C[C@H]21)N1CCCC1 [Example 347, (2S)-N-[(3aS,4R,6aR)-2-(cyclopropylsulfonyl)octahydrocyclopenta[c]pyrrol-4-yl]-4-methyl-2-pyrrolidin-1-ylpentanamide] | > 5.2
17 | CN[C@@H](CC(C)C)C(=O)N[C@H]1CC[C@@H]2CN(c3ccc(C)cc3)C[C@@H]21 [Example 648, N^2-methyl-N-[(3aR,4S,6aS)-2-(4-methylphenyl)octahydrocyclopenta[c]pyrrol-4-yl]-L-leucinamide] | 3.55
18 | Cn1c(CN[C@H]2CC[C@@H]3CN(c4cccc(C(F)(F)F)n4)C[C@@H]32)cc2ccccc21 [Example 720, (3aR,4S,6aS)-N-[(1-methyl-1H-indol-2-yl)methyl]-2-[6-(trifluoromethyl)pyridin-2-yl]octahydrocyclopenta[c]pyrrol-4-amine] | 1.44
19 | O=S(=O)(N[C@H]1CC[C@@H]2CN(c3cccc(C(F)(F)F)n3)C[C@@H]21)c1ccc(F)c(Cl)c1 [Example 710, 3-chloro-4-fluoro-N-{(3aR,4S,6aS)-2-[6-(trifluoromethyl)pyridin-2-yl]octahydrocyclopenta[c]pyrrol-4-yl}benzenesulfonamide] | 5.56
20 | CCC[C@H](NC)C(=O)N[C@@H]1CC[C@@H]2CN(Cc3ccccc3)C[C@@H]21 [Example 363, N^1-[(3aR,4R,6aS)-2-benzyloctahydrocyclopenta[c]pyrrol-4-yl]-N^2-methyl-L-norvalinamide] | > 30

Same assay, conditions: IC50 (μM) or percent inhibition (* indicates 3 minute incubation, otherwise 60 minute), IC50; 3 minute pre-incubation (*); IMR32 cells, 80 mM KCl depolarization

Row | IC50 [µM] | Compound
21 | 3.5 | O=C(N[C@@H]1CC[C@H]2CN(Cc3ccccc3)C[C@H]21)C(c1ccccc1)C1CCCCC1 (relative stereo) [Example 4, N-[(3aS*,4R*,6aR*)-2-benzyloctahydrocyclopenta[c]pyrrol-4-yl]-2-cyclohexyl-2-phenylacetamide]

Same assay, conditions: read-out: IC50 (μM) or percent inhibition (* indicates 3 minute incubation, otherwise 60 minute); IC50; 60 minute pre-incubation with compound; IMR32 cells, 80 mM KCl depolarization

Row | IC50 [µM] | Compound
22 | 1.49 | CC(C)N[C@@H](CC1CCCCC1)C(=O)N[C@H]1CC[C@@H]2CN(S(=O)(=O)c3ccc(C(F)(F)F)cc3)C[C@@H]21 [Example 485, 3-cyclohexyl-N^2-isopropyl-N^1-((3aR,4S,6aS)-2-{[4-(trifluoromethyl)phenyl]sulfonyl}octahydrocyclopenta[c]pyrrol-4-yl)-L-alaninamide]
23 | 0.92 | CC(C)C[C@@H](C(=O)N[C@@H]1CC[C@H]2CN(Cc3cccc(C(F)(F)F)c3)C[C@H]21)N(C)S(C)(=O)=O [Example 169, N^2-methyl-N^2-(methylsulfonyl)-N^1-{(3aS,4R,6aR)-2-[3-(trifluoromethyl)benzyl]octahydrocyclopenta[c]pyrrol-4-yl}-L-leucinamide]
24 | 1.35 | O=C(N[C@H]1CC[C@H]2CN(Cc3ccc(C(F)(F)F)c(F)c3)C[C@H]21)C(C1CCCCC1)C1CCCCC1 [Example 58, 2,2-dicyclohexyl-N-{(3aS,4S,6aR)-2-[3-fluoro-4-(trifluoromethyl)benzyl]octahydrocyclopenta[c]pyrrol-4-yl}acetamide]

Second part, the compound before the results:

Row | Compound | IC50 [µM]
25 | CCN(CC)[C@H]1CC[C@@H]2CN(S(=O)(=O)c3ccc(C(F)(F)F)cc3)C[C@@H]21 [Example 289, (3aR,4S,6aS)-N,N-diethyl-2-{[4-(trifluoromethyl)phenyl]sulfonyl}octahydrocyclopenta[c]pyrrol-4-amine] | 9.75
26 | CCC[C@H](NC)C(=O)N[C@H]1CC[C@@H]2CN(C(=O)c3cccc(C(F)(F)F)c3)C[C@@H]21 [Example 554, N^2-methyl-N^1-{(3aR,4S,6aS)-2-[3-(trifluoromethyl)benzoyl]octahydrocyclopenta[c]pyrrol-4-yl}-L-norvalinamide] | 10.3
27 | CCC[C@H](NCC(C)(C)C)C(=O)N[C@@H]1CC[C@H]2CN(Cc3ccccc3)C[C@H]21 [Example 246, N^1-[(3aS,4R,6aR)-2-benzyloctahydrocyclopenta[c]pyrrol-4-yl]-N^2-neopentyl-L-norvalinamide] | 8.38
28 | CCC[C@@H](C(=O)N[C@@H]1CC[C@@H]2CN(S(=O)(=O)c3ccc(C(F)(F)F)cc3)C[C@@H]21)N(C)C(=O)OC(C)(C)C [Example 328, tert-butyl methyl((S)-1-oxo-1-((3aR,4R,6aS)-2-(4-(trifluoromethyl)phenylsulfonyl)octahydrocyclopenta[c]pyrrol-4-ylamino)pentan-2-yl)carbamate] | 1.39
29 | CC(C)(C)[C@H](C(=O)N[C@@H]1CC[C@H]2CN(Cc3ccccc3)C[C@H]21)c1ccccc1 [Example 31, (2S)-N-[(3aS,4R,6aR)-2-benzyloctahydrocyclopenta[c]pyrrol-4-yl]-3,3-dimethyl-2-phenylbutanamide] | 1.65
30 | CC(C)C(C(=O)N[C@H]1CC[C@@H]2CN(Cc3cccs3)C[C@@H]21)c1ccccc1 (stereo partly drawn) [Example 102, 3-methyl-2-phenyl-N-[(3aR,4S,6aS)-2-(thien-2-ylmethyl)octahydrocyclopenta[c]pyrrol-4-yl]butanamide] | 2.77
31 | N^2-isopropyl-4-methyl-N^1-{(3aR,4S,6aS)-2-[2-(methylsulfonyl)pyrimidin-5-yl]octahydrocyclopenta[c]pyrrol-4-yl}-L-leucinamide [Example 493] | 5.08
